Reference: PubChem BioAssay AID1259407 (Chemical Carcinogenesis Research Information System (CCRIS), 2018)
Calls of active or inactive are those of the source. No rule for the calls is given here.

System: CCRIS mutagenicity, Ames/micronucleus/aberration tests
Assay: CCRIS mutagenicity studies
[1] = Test System: AMES SALMONELLA TYPHIMURIUM, Strain/Indicator: TA98, Metabolic Activation: NONE, Method: STANDARD PLATE
[2] = Test System: AMES SALMONELLA TYPHIMURIUM, Strain/Indicator: TA98, Metabolic Activation: RAT, LIVER, S-9, AROCLOR 1254, Method: STANDARD PLATE

Row | Structure (SMILES) | mutagenic call [1] | mutagenic call [2] | mutagenic call (Test System: AMES SALMONELLA TYPHIMURIUM, Strain/Indicator: TA100, Metabolic Activation: NONE, Method: STANDARD PLATE) | mutagenic call (Test System: AMES SALMONELLA TYPHIMURIUM, Strain/Indicator: TA100, Metabolic Activation: RAT, LIVER, S-9, AROCLOR 1254, Method: STANDARD PLATE) | mutagenic call (Test System: AMES SALMONELLA TYPHIMURIUM, Strain/Indicator: TA1535, Metabolic Activation: NONE, Method: STANDARD PLATE) | mutagenic call (Test System: AMES SALMONELLA TYPHIMURIUM, Strain/Indicator: TA1535, Metabolic Activation: RAT, LIVER, S-9, AROCLOR 1254, Method: STANDARD PLATE) | mutagenic call (Test System: AMES SALMONELLA TYPHIMURIUM, Strain/Indicator: TA1537, Metabolic Activation: NONE, Method: STANDARD PLATE) | mutagenic call (Test System: AMES SALMONELLA TYPHIMURIUM, Strain/Indicator: TA1537, Metabolic Activation: RAT, LIVER, S-9, AROCLOR 1254, Method: STANDARD PLATE) | mutagenic call (Test System: AMES SALMONELLA TYPHIMURIUM, Strain/Indicator: TA1538, Metabolic Activation: NONE, Method: STANDARD PLATE) | mutagenic call (Test System: AMES SALMONELLA TYPHIMURIUM, Strain/Indicator: TA1538, Metabolic Activation: RAT, LIVER, S-9, AROCLOR 1254, Method: STANDARD PLATE) | mutagenic call (Test System: E. COLI, Strain/Indicator: WP2 UVRA, Metabolic Activation: NONE, Method: STANDARD PLATE) | mutagenic call (Test System: E. COLI, Strain/Indicator: WP2 UVRA, Metabolic Activation: RAT, LIVER, S-9, AROCLOR 1254, Method: STANDARD PLATE) | mutagenic call (Test System: MOUSE LYMPHOMA, Strain/Indicator: L5178Y (TK+/TK-), Metabolic Activation: NONE, Method: SUSPENSION/PLATE)
1 | O=C1c2ccccc2-c2cc3ccccc3cc21 | active; positive | active; positive | – | – | – | – | – | – | – | – | – | – | –
2 | COc1ccc(CNCC(O)COc2ccc3[nH]c(=O)ccc3c2)cc1OC (stereo not given) | inactive; negative | inactive; negative | inactive; negative | inactive; negative | inactive; negative | inactive; negative | inactive; negative | inactive; negative | inactive; negative | inactive; negative | inactive; negative | inactive; negative | active; positive
